Experimental data: patent US10524471B2, “Compositions and methods for increasing salt tolerance in plants” (King Abdullah University of Science and Technology, priority 2016, dated 2020)
Entries after “also recorded” stand apart in the source; their conditions may differ.

System: Arabidopsis seedlings
Experiment: Arabidopsis salt stress tolerance assay (½ MS + 100 mM NaCl)
Type: in vivo, Arabidopsis thaliana

SMILES	SA187-induced tolerance to salt stress in presence of inhibitor (in vivo)	effect on salt stress tolerance compared with SA187 (100 nM ACC, ½ MS + 100 mM NaCl, 12 days after transfer)
O=[N+]([O-])[O-].[Ag+] [AgNO3, silver nitrate]	did not exhibit any SA187-induced tolerance to salt stress	
NC1(C(=O)O)CC1 [ACC, 1-aminocyclopropane-1-carboxylic acid]		could largely mimic the beneficial activity of SA187; also recorded: partially mimics the effect of SA187
